From US9138659B2, “Compositions, methods, and systems relating to controlled crystallization and/or nucleation of molecular species” (Massachusetts Institute of Technology, priority 2010, dated 2015)
Converted amounts (≈) assume the structure as drawn. “Also recorded” adds a separate entry of the source.

Experiments:
[1] = CBZ nucleation induction time and polymorphic outcome with PEGMDA microgels in ethanol; assay type: physicochemical
Source text: Results and Discussion: Monodispersed cubelike PEGMDA microgels (FIG. 27 left), with M ranging from 130 to 700 g/mol were synthesized by Stop-Flow Lithography, The mesh sizes vary from 0.7 to 1.5 nm in solvent ethanol (Table 9), estimated from equilibrium swelling by the Flory-Rehner theory. The accuracy of this method for obtaining mesh sizes has been confirmed with Small-Angle Neutron Scattering in a different solvent. The microgels were utilized for controlling polymorph crystallization by suspending ˜10 μg of microgels per 1 ml solution by stiffing. Such a low microgel concentration may be sufficient to effect drastic change in the crystallization behavior (discussed later), underscoring the effectiveness of polymer microgels in controlling crystallization. In all crystallization experiments, supersaturation of the solution was generated by cooling instead of solvent evaporation, despite its popularity in numerous polymorph studies, to yield better control over the crystallization process.
Occasionally, pure Form III was also obtained from bulk experiments. […] However, such polymorph selectivity could not be attained using microgels with M<400 g/mol (˜100 trials) where the polymorphic outcome was quite similar to that of the bulk samples (Table 9), only with a decreased mass fraction of Form I in the mixture obtained (FIG. 28 discussed later) and a lower frequency of occurrence of Form III.
Average mesh size ξ was estimated from equilibrium swelling experiments in solvent ethanol. Induction time distribution data were fitted with stretched exponentials via nonlinear least square regression: P=exp[−(t/τ)^β], where P is the probability to observe no crystallization event within time t.
Induction time was measured by monitoring IR transmission signal passing through a solution in controlled temperature environment and stirring condition. Once nucleation occurred, the solution became turbid in seconds indicated by a sharp drop of IR signal, due to secondary nucleation and rapid crystal growth. The statistical nature of nucleation necessitated a large number of experiments (50-100) for obtaining the distribution of induction times, from which the average induction time τ was regressed with a stretched-exponential model, P(t)=exp[−(t/τ)^β], where P is the probability to observe no crystallization event within time t. In brief, the stretched-exponential model modified the single exponential model derived from the Poisson statistics, P(t)=exp (−t/τ) by adding an exponent β to the dimensionless induction time t/τ to capture the spread in characteristic time scales caused by a distribution of nucleation active sites present in the system.

[2] = CBZ anhydrous forms; ambient conditions; cited from earlier work
[3] = Partition coefficients of CBZ and ROY in PEGMDA microgels from ethanol solutions; assay type: physicochemical; conditions: ethanol solution
[4] = Solubility of ASA and ACM; assay type: physicochemical; conditions: aqueous with cosolvent or surfactant or cyclodextrin; 38/62 (v/v) ethanol/water mixture at 25° C
[5] = Equilibrium partitioning of ASA / ACM into PEGDA and PEGDA-co-AM gels; assay type: physicochemical; conditions: for increase in κ with modified gels: ACM
Procedure: This theory is exemplified by quantifying the partitioning of aspirin between the PEGDA gel phase and 38/62 ethanol/water (v/v), and determining the concentration of aspirin in the hydrogel particles. The partitioning experiments were performed at the same solution concentration and temperature as in the nucleation induction time experiments. In the partitioning experiment, both the concentrations of aspirin and ethanol were measured, as there are three species in the bulk solution, namely aspirin, ethanol and water, all of which partition in the gel phase to a certain degree determined by their relative interaction with the PEGDA polymer matrix.
Composition of aspirin solution in the PEGDA gel phase were compared with the bulk phase. PEGDA gels sufficiently large for convenient handling were synthesized by UV polymerization, following the same formulation as the synthesis of PEGDA particles used in the crystallization study. The PEGDA gels were washed with ethanol and vacuum dried to remove unreacted species. The gel was then immersed in excessive 38 mg/ml aspirin solution in 38/62 ethanol/water (v/v) and allowed sufficient time to reach equilibrium swelling at 15° C. before taken out, pad dried, and put in excessive water. After 5 hours immersed in water, the concentrations of aspirin and ethanol in the aqueous phase were analyzed by UV-Vis spectroscopy and Gas Chromatography, respectively.
In FIG. 10: Partitioning of aspirin vs. acetaminophen in the PEGDA gel. Y axis represents the relative API concentration in the PEGDA, normalized by the bulk concentration. The aspirin partitioning experiment was conducted in 38 mg/ml aspirin solution in 38/62 ethanol/water (v/v) at 15° C. As for acetaminophen, 95 mg/ml acetaminophen solution in 38/62 ethanol/water (v/v) was used and the equilibration temperature was 8° C. In both cases, the experimental conditions were kept the same as used in the nucleation induction time study.
Quantification of polymer-solute interactions: The strength of intermolecular interactions between the PEGDA-co-AM polymer network and the molecule to crystallize was characterized with the solute equilibrium partition coefficient at the same condition as used in the crystallization study. Solute partition coefficient κ, defined as the ratio of solute mass fraction in solution confined in the gel to that in the bulk, is a relevant parameter because it informs the solute concentration in the gel at the crystallization condition, which is an important factor affecting nucleation. […] The PEGDA polymers are comprised of the PEG subchain and the acrylate crosslinkers.
Partition coefficient measurements: Partition coefficients of ASA in PEGDA-co-AM gels from its bulk solution were determined as follows. In brief, a series of gels with varying mesh sizes of approximately 5 mm in diameter and 0.5 mm in thickness were synthesized via UV polymerization following the same formula as used in the microgel synthesis. The residue solvent, porogen and monomer molecules were removed by extensive washing with solvent ethanol and subsequent vacuum drying. The dry gels were then immersed in excessive volume of 38 mg/ml ASA solution in 38/62 (v/v) ethanol/water at 15° C. for overnight.

[6] = Nucleation induction time of ASA / ACM with PEGDA or PEGDA-co-AM microgels in 38/62 ethanol/water; assay type: physicochemical; conditions: for average nucleation induction time τ: ACM S = 3.7; for Average nucleation induction time τ (stretched exponential fit) / τ1 (two-exponential fit) / τ2 (two-exponential fit): ACM
Source text: Nucleation kinetics of model compounds was investigated by measuring the nucleation induction time probability distribution. Nucleation induction time is generally time elapsed prior to the formation of a detectable amount of the new crystalline phase. It is a useful indicator of the surface nucleation activity because it can be dramatically shortened when the presence of an interface lowers the free energy barrier of nucleation. Due to the stochastic nature of nucleation events, a large number of experiments were performed to obtain the probability distribution of nucleation induction time. To obtain the average induction time τ, statistical analysis on the induction time data was conducted based on the understanding that nucleation follows a Poisson distribution. According to Poisson statistics, the probability for a nucleation event to occur beyond time t is P=exp(−t/τ), which implies that the fraction of vials without nucleation at time t exponentially decays as a function of time, where the scaling factor for time is the average induction time.
For determining the statistical analysis of aspirin nucleation induction time with PEGDA particles of various mesh sizes (particles denoted by Mn), 1.9 mL of 38 mg/ml ASA solution in 38/62 ethanol/water (v/v) with 15 μg/mL PEGDA particles was cooled at a rate of 5° C./min from 35° C. to 15° C. to achieve a supersaturation of 2.1. The solution was stirred at 700 rpm. The onset of nucleation was detected by an IR probe which measures the transmission signal through the solution. A total of 10 vials were cycled for 5-10 times to yield 50-100 nucleation induction time measurements for the statistical analysis.
The nucleation rate, J, is given by J=1/τV, where τ the average induction time (Table 1) and V the volume of solution. For this equation to be valid, the assumption is that the crystal growth rate is much faster than the nucleation rate, which is the case for ASA. […] Other crystallization conditions were kept the same.
[…] The solution was stirred at 700 rpm. The onset of nucleation was detected by an IR probe which measures the transmission signal through the solution. A total of 10 vials were cycled for 5-10 times to yield 50-100 nucleation induction time data for the statistical analysis.
Effect of polymer gels on nucleation induction time statistics: To evaluate the impact of polymer-solute interactions on nucleation kinetics, induction times of ASA and ACM were measured with microgels of a series average mesh sizes before and after chemical modification suspended in respective supersaturated solutions. […] For each system, a large number of experiments (50-100) were conducted to obtain the induction time probability distribution. The nucleation induction time generally follows the Poisson distribution. However, deviations can occur, as observed in this study, when there is more than one type of nucleation sites in a sample, giving rise to multiple Poisson processes with different characteristic time scales.
For samples with PEGMDA microgels, the nucleation induction time distributions reported in previous work can be faithfully described by stretched exponentials (Tables 5 and 6), P=exp[−(t/τ)^β], where P is the probability to observe no crystallization event within time t, τ the average induction time. The stretched exponential exponent β served as a measure for the spread of time scales characterizing the nucleation process, or the distribution of kinetic barriers arisen from the heterogeneity of the system. Such heterogeneity can be attributed to the heterogeneity of the polymer microstructure identified using SANS, which resulted from a distribution of nucleation sites arising from spatial variations in both the mesh size and chemical composition of the hydrogel at nanometer length scales. Note that β varies with the average mesh size of the microgel. […]

[7] = CBZ, Bulk ethanol solution, S=1.63, T=25° C
[8] = CBZ, PEGMDA microgels M 130 g/mol
[9] = CBZ, PEGMDA microgels M 200 g/mol
[10] = PEGDA-co-AM microgels M 130 g/mol
[11] = PEGDA-co-AM microgels M 200 g/mol
[12] = PEGDA-co-AM microgels M 400 g/mol

SMILES: NC(=O)N1c2ccccc2C=Cc2ccccc21 [CBZ, carbamazepine]
- Polymorph [1, 7]: concomitant crystallization of Forms I and II; also recorded: II & I, occasionally
- average nucleation induction time τ [1, 7]: 427 ± 13 min
- Polymorph [1, 8]: II & I
- average nucleation induction time τ [1, 8]: 222 ± 5 min
- Polymorph [1, 9]: II & I
- average nucleation induction time τ [1, 9]: 174 ± 11 min
- average nucleation induction time τ ([1]; CBZ, PEGMDA microgels M 400 g/mol): 10.9 ± 0.3 min
- average nucleation induction time τ ([1]; CBZ, PEGMDA microgels M 575 g/mol): 33 ± 1 min
- average nucleation induction time τ ([1]; CBZ, PEGMDA microgels M 700 g/mol): 49 ± 1 min
- Polymorph crystallized ([1]; CBZ, PEGMDA microgels with M≧400 g/mol, ~250 trials): pure Form II
- optimum mesh size for CBZ nucleation ([1]; PEGMDA microgels): 1.1 nm
- energy separation between form III and II [2]: less than 0.7 kcal/mol
- Partition coefficient κ (solute mass fraction in gel solution / bulk) ([3]; PEGMDA microgels M 130 g/mol): 3.0 ± 0.4
- Partition coefficient κ (solute mass fraction in gel solution / bulk) ([3]; PEGMDA microgels M 200 g/mol): 2.7 ± 0.1
- Partition coefficient κ (solute mass fraction in gel solution / bulk) ([3]; PEGMDA microgels M 400 g/mol): 3.8 ± 0.2
- Partition coefficient κ (solute mass fraction in gel solution / bulk) ([3]; PEGMDA microgels M 575 g/mol): 3.8 ± 0.04
- Partition coefficient κ (solute mass fraction in gel solution / bulk) ([3]; PEGMDA microgels M 700 g/mol): 3.7 ± 0.1

SMILES: CC(=O)Nc1ccc(O)cc1 [acetaminophen]
- solubility [4]: 90 mg/mL (≈ 595 mM)
- acetaminophen concentration in PEGDA particles relative to bulk concentration ([5]; 95 mg/ml in 38/62 ethanol/water, 8° C, FIG. 10): approximately twice the bulk concentration
- increase in κ with modified gels ([5]; Mn=130 g/mol): 35%
- increase in κ with modified gels ([5]; Mn=700 g/mol): 14%
- average nucleation induction time τ ([6]; Bulk (no particles), 38/62 ethanol/water): 6500 ± 1600 min
- average nucleation induction time τ ([6]; PEGDA microparticles Mn 130 g/mol): 920 ± 70 min
- average nucleation induction time τ ([6]; PEGDA microparticles Mn 200 g/mol): 540 ± 20 min
- average nucleation induction time τ ([6]; PEGDA microparticles Mn 400 g/mol): 1720 ± 150 min
- average nucleation induction time τ ([6]; PEGDA microparticles Mn 700 g/mol): 6500 ± 1600 min
- Average nucleation induction time τ (stretched exponential fit) ([6]; Bulk): 37000 min
- Average nucleation induction time τ (stretched exponential fit) ([6]; PEGDA microgels M 130 g/mol): 1600 min
- Average nucleation induction time τ (stretched exponential fit) ([6]; PEGDA microgels M 200 g/mol): 480 min
- Average nucleation induction time τ (stretched exponential fit) ([6]; PEGDA microgels M 400 g/mol): 5300 min
- Average nucleation induction time τ (stretched exponential fit) ([6]; PEGDA microgels M 700 g/mol): 37000 min
- τ1 (two-exponential fit) [6, 10]: 55 min
- τ2 (two-exponential fit) [6, 10]: 1360 min
- τ1 (two-exponential fit) [6, 11]: 88 min
- τ2 (two-exponential fit) [6, 11]: 12400 min
- τ1 (two-exponential fit) [6, 12]: 70 min
- τ2 (two-exponential fit) [6, 12]: 35000 min
- promotion of nucleation kinetics when AM co-monomer was introduced into the PEGDA matrix ([6]; PEGDA-co-AM vs PEGDA microgels): up to two orders of magnitude
- best enhancement in nucleation kinetics by addition of PEGDA particles ([6]; vs bulk, Table 2): about ten-fold
